Data published in US9732119B2, “Immunomodulators” (BRISTOL-MYERS SQUIBB COMPANY, priority 2014, dated 2017).
Positions of bridges follow the written chain, without caps; N, C: chain ends. Non-standard residues stand in square brackets, D forms with d. Residues, ends and D or L forms follow the SMILES beside them. Trp(1-CH2COOH) = N[C@@H](Cc1cn(CC(=O)O)c2ccccc12)C(=O)O; Phe(4-Cl) = N[C@@H](Cc1ccc(Cl)cc1)C(=O)O; Phe(4-F) = N[C@@H](Cc1ccc(F)cc1)C(=O)O; Phe(4-Me) = Cc1ccc(C[C@H](N)C(=O)O)cc1; Hyp = O=C(O)[C@@H]1C[C@@H](O)CN1; Aad = N[C@@H](CCCC(=O)O)C(=O)O; NMeNle = CCCC[C@H](NC)C(=O)O; dOrn = NCCC[C@@H](N)C(=O)O; Pip = O=C(O)[C@@H]1CCCCN1; NMeA = CN[C@@H](C)C(=O)O; Dab = NCC[C@H](N)C(=O)O; Dap = NC[C@H](N)C(=O)O; AEA = NCCOCC(=O)O; Ava = NCCCCC(=O)O

What follows are molecules tested against T1, PD-1-Ig binding to PD-L1-TVMV-His (PD-L1-His) (Homo sapiens, UniProt Q9NZQ7) (assay: PD-1/PD-L1 Homogenous Time-Resolved Fluorescence (HTRF) binding assay). Details: PD-1-Ig (20 nM) / PD-L1-His (10 nM); range classes.
T1 construct: hPDL1(19-239)-TVMV-His; made in house; host or cells: HEK293T cells
T1 sequence (Q9NZQ7 with tags, fused parts or gaps): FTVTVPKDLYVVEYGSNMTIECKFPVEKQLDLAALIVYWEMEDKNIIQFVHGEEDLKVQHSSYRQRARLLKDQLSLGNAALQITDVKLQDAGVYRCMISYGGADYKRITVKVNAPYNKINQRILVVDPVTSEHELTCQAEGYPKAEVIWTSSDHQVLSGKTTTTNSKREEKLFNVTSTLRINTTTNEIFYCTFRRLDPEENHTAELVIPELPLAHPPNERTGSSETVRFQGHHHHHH
Procedure, shortened: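 HTRF competition: compound pre-incubated 15 min with PD-L1-His (10 nM final), then PD-1-Ig (20 nM final) added for 15 min in dPBS, 0.1% BSA, 0.05% Tween-20. Detection with Eu-cryptate anti-Ig (1 nM) and APC anti-His (20 nM) antibodies.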
For `CCCC[C@H]1C(=O)N(C)[C@@H](CCCC)C(=O)N[C@@H](CCC(=O)O)C(=O)N[C@H](C(N)=O)CNCC(=O)N[C@@H](Cc2ccc(F)cc2)C(=O)N2CCCC[C@H]2C(=O)N[C@@H](CC(N)=O)C(=O)N2CCC[C@H]2C(=O)N[C@@H](CCC(N)=O)C(=O)N[C@@H](CCC(=O)O)C(=O)N2C[C@H](O)C[C@H]2C(=O)N[C@@H](Cc2c[nH]c3ccccc23)C(=O)N[C@@H](CC(N)=O)C(=O)N[C@@H](Cc2cn(CC(=O)O)c3ccccc23)C(=O)N1C` [Example 9047], the IC50 was 1 to 9.9 nM. `CCCC[C@H]1C(=O)N(C)[C@@H](CCCC)C(=O)N[C@@H](CC(C)C)C(=O)N[C@H](C(=O)NCC(N)=O)CCCNCC(=O)N[C@@H](Cc2ccc(O)cc2)C(=O)N(C)[C@@H](C)C(=O)N[C@@H](CC(N)=O)C(=O)N2CCC[C@H]2C(=O)N[C@@H](Cc2cnc[nH]2)C(=O)N[C@@H](CCC(N)=O)C(=O)N2C[C@H](O)C[C@H]2C(=O)N[C@@H](Cc2c[nH]c3ccccc23)C(=O)NCC(=O)N[C@@H](Cc2cn(CC(=O)O)c3ccccc23)C(=O)N1C` [Example 10022] showed an IC50 of 10 to 99 nM. `CCCC[C@H]1C(=O)N(C)[C@@H](CCCC)C(=O)N[C@@H](CC(C)C)C(=O)NCCCCC(=O)N[C@@H](Cc2ccc(O)cc2)C(=O)N(C)[C@@H](C)C(=O)N[C@@H](CC(N)=O)C(=O)N2CCC[C@H]2C(=O)N[C@@H](CN)C(=O)N[C@@H](CC(C)C)C(=O)N2C[C@H](O)C[C@H]2C(=O)N[C@@H](Cc2c[nH]c3ccccc23)C(=O)N[C@@H](CCN)C(=O)N[C@@H](Cc2c[nH]c3ccccc23)C(=O)N1C` [Example 10505] (cyclo([Ava]Y[NMeA]NP[Dap]L[Hyp]W[Dab]W[NMeNle][NMeNle]L)) showed an IC50 of 1 to 9.9 nM. `CCCC[C@H]1C(=O)N(C)[C@@H](CCCC)C(=O)N[C@@H](CC(C)C)C(=O)NCCC[C@@H](N)C(=O)N[C@@H](Cc2ccc(Cl)cc2)C(=O)N2CCCC[C@H]2C(=O)N[C@@H](CC(N)=O)C(=O)N2CCC[C@H]2C(=O)N[C@@H](CN)C(=O)N[C@@H](CC(C)C)C(=O)N2C[C@H](O)C[C@H]2C(=O)N[C@@H](Cc2c[nH]c3ccccc23)C(=O)N[C@@H](CCN)C(=O)N[C@@H](Cc2cn(CC(=O)O)c3ccccc23)C(=O)N1C` [Example 10559] (H-[dOrn][Phe(4-Cl)][Pip]NP[Dap]L[Hyp]W[Dab][Trp(1-CH2COOH)][NMeNle][NMeNle]L; lactam 1-C) gave an IC50 of 10 to 99 nM. Work on `CCCC[C@H]1C(=O)N(C)[C@@H](CCCC)C(=O)N[C@@H](C)C(=O)N[C@H](C(=O)NCC(N)=O)CNCC(=O)N[C@@H](Cc2ccc(O)cc2)C(=O)N(C)[C@@H](C)C(=O)N[C@@H](CC(=O)O)C(=O)N2CCC[C@H]2C(=O)N[C@@H](Cc2cnc[nH]2)C(=O)N[C@@H](CCC(N)=O)C(=O)N2C[C@H](O)C[C@H]2C(=O)N[C@@H](Cc2c[nH]c3ccccc23)C(=O)N[C@@H](CO)C(=O)N[C@@H](Cc2c[nH]c3ccccc23)C(=O)N1C` [Example 10011] yielded an IC50 of 1 to 9.9 nM. `CCCC[C@H]1C(=O)N(C)[C@@H](CCCC)C(=O)N[C@@H](CC(C)C)C(=O)N[C@H](C(=O)NCC(N)=O)CNCC(=O)N[C@@H](Cc2ccc(F)cc2)C(=O)N(C)[C@@H](C)C(=O)N[C@@H](CC(=O)O)C(=O)N2CCC[C@H]2C(=O)N[C@@H](CCC(N)=O)C(=O)N[C@@H](CCC(=O)O)C(=O)N2C[C@H](O)C[C@H]2C(=O)N[C@@H](Cc2c[nH]c3ccccc23)C(=O)N[C@@H](CC(N)=O)C(=O)N[C@@H](Cc2cn(CC(=O)O)c3ccccc23)C(=O)N1C` [Example 9016] was tested, and the IC50 was 1 to 9.9 nM. `CCCC[C@H]1C(=O)N(C)[C@@H](CCCC)C(=O)NC(CC(C)C)C(=O)N[C@H](C(=O)NCC(N)=O)CNCC(=O)N[C@@H](Cc2ccc(O)cc2)C(=O)N(C)[C@@H](C)C(=O)N[C@@H](CC(N)=O)C(=O)N2CCC[C@H]2C(=O)N[C@@H](CN)C(=O)N[C@@H](CC(C)C)C(=O)N2C[C@H](O)C[C@H]2C(=O)N[C@@H](Cc2c[nH]c3ccccc23)C(=O)N[C@@H](CCN)C(=O)N[C@@H](Cc2cn(CC(=O)O)c3ccccc23)C(=O)N1C` (some centres unmarked) [Example 1030] was tested, and the IC50 was 1 to 9.9 nM. `CCCC[C@H]1C(=O)N(C)[C@@H](CCCC)C(=O)N[C@@H](CCC(=O)O)C(=O)N[C@H](C(N)=O)CCCC(=O)N[C@@H](Cc2ccc(C)cc2)C(=O)N2CCCC[C@H]2C(=O)N[C@@H](CC(N)=O)C(=O)N2CCC[C@H]2C(=O)N[C@@H](CN)C(=O)N[C@@H](CC(C)C)C(=O)N2C[C@H](O)C[C@H]2C(=O)N[C@@H](Cc2c[nH]c3ccccc23)C(=O)N[C@@H](CCN)C(=O)N[C@@H](Cc2cn(CC(=O)O)c3ccccc23)C(=O)N1C` [Example 10562] ([Phe(4-Me)][Pip]NP[Dap]L[Hyp]W[Dab][Trp(1-CH2COOH)][NMeNle][NMeNle]E[Aad]-NH2; lactam N-14) showed an IC50 of 10 to 99 nM. Molecule `CCCC[C@H]1C(=O)N(C)[C@@H](CCCC)C(=O)N[C@@H](CC(C)C)C(=O)NCCCCC(=O)N[C@@H](Cc2ccc(F)cc2)C(=O)N2CCCC[C@H]2C(=O)N[C@@H](CC(N)=O)C(=O)N2CCC[C@H]2C(=O)N[C@@H](CN)C(=O)N[C@@H](CC(C)C)C(=O)N2C[C@H](O)C[C@H]2C(=O)N[C@@H](Cc2c[nH]c3ccccc23)C(=O)N[C@@H](CCN)C(=O)N[C@@H](Cc2cn(CC(=O)O)c3ccccc23)C(=O)N1C` [Example 10536] (cyclo([Ava][Phe(4-F)][Pip]NP[Dap]L[Hyp]W[Dab][Trp(1-CH2COOH)][NMeNle][NMeNle]L)) has an IC50 of 1 to 9.9 nM. `CCCC[C@H]1C(=O)N(C)[C@@H](CCCC)C(=O)N[C@@H](CC(C)C)C(=O)N[C@H](C(N)=O)CNCC(=O)N[C@@H](Cc2ccc(O)cc2)C(=O)N2CCCC[C@H]2C(=O)N[C@@H](CC(N)=O)C(=O)N2CCC[C@H]2C(=O)N[C@@H](Cc2c[nH]cn2)C(=O)N[C@@H](CCC(N)=O)C(=O)N2C[C@H](O)C[C@H]2C(=O)N[C@@H](Cc2c[nH]c3ccccc23)C(=O)N[C@@H](C)C(=O)N[C@@H](Cc2cn(CC(=O)O)c3ccccc23)C(=O)N1C` [Example 9051] showed an IC50 of 1 to 9.9 nM. `CCCC[C@H]1C(=O)N(C)[C@@H](CCCC)C(=O)NC(CC(C)C)C(=O)N[C@H](C(=O)NCC(N)=O)CNCC(=O)N[C@@H](Cc2ccc(O)cc2)C(=O)N(C)[C@@H](C)C(=O)N[C@@H](CC(N)=O)C(=O)N2CCC[C@H]2C(=O)N[C@@H](CN)C(=O)N[C@@H](CCC(=O)O)C(=O)N2C[C@H](O)C[C@H]2C(=O)N[C@@H](Cc2c[nH]c3ccccc23)C(=O)N[C@@H](CCN)C(=O)N[C@@H](Cc2cn(CC(=O)O)c3ccccc23)C(=O)N1C` (some centres unmarked) [Example 1031] was tested, and the IC50 was 1 to 9.9 nM. `CCCC[C@H]1C(=O)N(C)[C@@H](CCCC)C(=O)N[C@@H](CC(C)C)C(=O)N[C@H](C(N)=O)CNCC(=O)N[C@@H](Cc2ccc(F)cc2)C(=O)N2CCCC[C@H]2C(=O)N[C@@H](CC(=O)O)C(=O)N2CCC[C@H]2C(=O)N[C@@H](CCC(N)=O)C(=O)N[C@@H](CC(C)C)C(=O)N2C[C@H](O)C[C@H]2C(=O)N[C@@H](Cc2c[nH]c3ccccc23)C(=O)N[C@@H](CC(N)=O)C(=O)N[C@@H](Cc2cn(CC(=O)O)c3ccccc23)C(=O)N1C` [Example 9038] was tested, and the IC50 was 1 to 9.9 nM. In the case of `CCCC[C@H]1C(=O)N(C)[C@@H](CCCC)C(=O)N[C@@H](CCC(=O)O)C(=O)N[C@H](C(N)=O)CCCC(=O)N[C@@H](Cc2ccc(O)cc2)C(=O)N2CCCC[C@H]2C(=O)N[C@@H](CC(N)=O)C(=O)N2CCC[C@H]2C(=O)N[C@@H](CN)C(=O)N[C@@H](CC(C)C)C(=O)N2C[C@H](O)C[C@H]2C(=O)N[C@@H](Cc2c[nH]c3ccccc23)C(=O)N[C@@H](CCN)C(=O)N[C@@H](Cc2cn(CC(=O)O)c3ccccc23)C(=O)N1C` [Example 10561] (Y[Pip]NP[Dap]L[Hyp]W[Dab][Trp(1-CH2COOH)][NMeNle][NMeNle]E[Aad]-NH2; lactam N-14), the IC50 is reported as 1 to 9.9 nM. Molecule `CCCC[C@H]1C(=O)N(C)[C@@H](CCCC)C(=O)N[C@@H](CC(C)C)C(=O)N[C@H](C(=O)NCC(N)=O)CNCC(=O)N[C@@H](Cc2ccc(O)cc2)C(=O)N(C)[C@@H](C)C(=O)N[C@@H](CC(N)=O)C(=O)N2CCC[C@H]2C(=O)N[C@@H](Cc2cnc[nH]2)C(=O)N[C@@H](CCC(N)=O)C(=O)N2C[C@H](O)C[C@H]2C(=O)N[C@@H](Cc2c[nH]c3ccccc23)C(=O)N[C@@H](CO)C(=O)N[C@@H](Cc2cn(CC(=O)O)c3ccccc23)C(=O)N1C` [Example 10008] has an IC50 of 1 to 9.9 nM. `CCCC[C@H]1C(=O)N(C)[C@@H](CCCC)C(=O)N[C@@H](CC(C)C)C(=O)NCCOCC(=O)N[C@@H](Cc2ccc(O)cc2)C(=O)N(C)[C@@H](C)C(=O)N[C@@H](CC(N)=O)C(=O)N2CCC[C@H]2C(=O)N[C@@H](CN)C(=O)N[C@@H](CC(C)C)C(=O)N2C[C@H](O)C[C@H]2C(=O)N[C@@H](Cc2c[nH]c3ccccc23)C(=O)N[C@@H](CO)C(=O)N[C@@H](Cc2cn(CC(=O)O)c3ccccc23)C(=O)N1C` [Example 10503] (cyclo([AEA]Y[NMeA]NP[Dap]L[Hyp]WS[Trp(1-CH2COOH)][NMeNle][NMeNle]L)) gave an IC50 of 10 to 99 nM. With `CCCC[C@H]1C(=O)N(C)[C@@H](CCCC)C(=O)NC(CC(C)C)C(=O)N[C@H](C(=O)NCC(N)=O)CNCC(=O)N[C@@H](Cc2ccc(O)cc2)C(=O)N(C)[C@@H](C)C(=O)N[C@@H](CC(N)=O)C(=O)N2CCC[C@H]2C(=O)N[C@@H](CC(N)=O)C(=O)N[C@@H](CC(C)C)C(=O)N2CCC[C@H]2C(=O)N[C@@H](Cc2c[nH]c3ccccc23)C(=O)N[C@@H](CC(N)=O)C(=O)N[C@@H](Cc2c[nH]c3ccccc23)C(=O)N1C` (some centres unmarked) [Example 10002] the IC50 was 10 to 99 nM. With `CCCC[C@H]1C(=O)N(C)[C@@H](CCCC)C(=O)N[C@@H](CC(C)C)C(=O)NCCC[C@@H](N)C(=O)N[C@@H](Cc2ccc(C)cc2)C(=O)N2CCCC[C@H]2C(=O)N[C@@H](CC(N)=O)C(=O)N2CCC[C@H]2C(=O)N[C@@H](CN)C(=O)N[C@@H](CC(C)C)C(=O)N2C[C@H](O)C[C@H]2C(=O)N[C@@H](Cc2c[nH]c3ccccc23)C(=O)N[C@@H](CCN)C(=O)N[C@@H](Cc2cn(CC(=O)O)c3ccccc23)C(=O)N1C` [Example 10567] (H-[dOrn][Phe(4-Me)][Pip]NP[Dap]L[Hyp]W[Dab][Trp(1-CH2COOH)][NMeNle][NMeNle]L; lactam 1-C) the IC50 was 10 to 99 nM.
